Measurements taken from patent USRE38115E1, “Dextromethorphan and an oxidase inhibitor for treating intractable conditions” (Center for Neurologic Study, priority 1996, dated 2003).
Several values for one entry are separate records, joined by “and”; a condition that tells them apart may be missing. Equal values may be shown once.

Legend:
DM oxidation = assay: Urinary DM/DRP ratio with other antioxidants (Example 4); conditions: urine; for baseline DM/DRP ratio: DM alone
Procedure: In these tests, DM was administered at a constant dosage to various individuals, all were healthy volunteers. DM was taken both before and after a candidate antioxidant was taken, and urine samples were collected at appropriate times and analyzed to determine the quantity of DM and its principle metabolite dextrorphan (DRP) in the urine.
Twelve healthy volunteers were studied.
After the baseline DM/DRP value for each volunteer had been determined, a candidate antioxidant was administered. […] After an appropriate delay, a second urine sample was obtained and analyzed. Each agent was administered to two patients.

[1] = test system: dextromethorphan metabolism; assay: Urinary DM/DR ratios (Example 1); conditions: urine, several hours after single 60 mg oral DM; ALS patients, one value per patient
Procedure: Six patients suffering from ALS were administered orally a single 60 mg dextromethorphan dose. Several hours later, a urine sample was collected, and the urine concentrations of dextromethorphan (DM) and dextrorphan (DR) were measured as described below to determine a DM/DR ratio.
To this was added 2000 units of betaglucuronidase in 1 mL of acetate buffer (0.1M, pH 5.0). The mixture was incubated for 18 hours at 37° C. and then extracted by adding 1 mL of phosphate buffer (pH 12, 0.10M) and 7 mL of n-butanol/hexane (10:90 v/v). After mixing and centrifugation, the organic layer was transferred to a clean tube, acidified with 400 uL of 0.01N HCL and 20 microliters (uL) of aqueous phase injected into a high performance liquid chromatography (HPLC) system. The HPLC used a phenyl column equilibrated with a mobile phase of acetonitrile:water (51:49 v/v) containing 10 mM KHPO4, 10 mM hexane sulfonic acid, pH 4.0 (flow rate 1.2 mL/min).
Briefly, 0.5 ml urine samples were spiked with 500 nanograms (ng) of dimethacrine. The urine pH was adjusted to […] with 0.1M acetate buffer (usually about 1.0 ml), and beta-glucuronidase was added (2000 units/ml urine). The mixture was incubated and shaken at 37° C. for 18 hours. The urine was subsequently adjusted to pH 10-11 with 1.0 mL of phosphate buffer and the urine extracted with 5 mL of dichloromethane. […]

[2] = Plasma concentrations of DM (Example 2); type: in vivo, human; conditions: DM 120 MG/DAY oral, quinidine 0; blood 10-12 hours later; one value per patient; listed as dextromethorphan
Procedure: Between 10 and 12 hours later, blood was sampled, blood plasma was isolated by centrifugation, and the plasma was analyzed to determine the DM concentration using the thebaine/HPLC method.
Between 10 and 12 hours later, blood was sampled and the plasma was analyzed for DM using thebaine/HPLC.

[3] = test system: patients with emotional lability; conditions: patients with bilateral neurological damage; described in U.S. Pat. No. 5,206,248; cited from earlier work
debrisoquin hydroxylase = debrisoquin hydroxylase (Homo sapiens, UniProt P10635); conditions: cited from earlier work
Sequence of debrisoquin hydroxylase (P10635 whole entry): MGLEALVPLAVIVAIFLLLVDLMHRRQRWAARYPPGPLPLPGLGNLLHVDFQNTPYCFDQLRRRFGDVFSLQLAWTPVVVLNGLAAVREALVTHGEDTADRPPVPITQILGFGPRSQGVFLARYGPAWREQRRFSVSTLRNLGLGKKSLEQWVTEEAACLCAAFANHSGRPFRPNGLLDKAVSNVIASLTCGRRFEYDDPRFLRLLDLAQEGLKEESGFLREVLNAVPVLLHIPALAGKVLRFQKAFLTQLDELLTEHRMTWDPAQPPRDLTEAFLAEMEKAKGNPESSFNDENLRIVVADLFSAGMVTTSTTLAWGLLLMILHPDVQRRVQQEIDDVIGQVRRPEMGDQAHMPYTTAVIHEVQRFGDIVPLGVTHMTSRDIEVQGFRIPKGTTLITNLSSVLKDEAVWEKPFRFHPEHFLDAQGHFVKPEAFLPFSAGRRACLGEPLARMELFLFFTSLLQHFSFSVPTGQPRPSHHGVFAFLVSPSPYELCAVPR

COc1ccc2c(c1)[C@@]13CCCC[C@H]1[C@@H](C2)N(C)CC3 [DM, (+)-3-methoxy-N-methylmorphinan]
baseline DM/DRP ratio (DM oxidation; extensive metabolizers, healthy volunteers): ≤ 0.06
baseline DM/DRP ratio (DM oxidation; one poor metabolizer (control)): 1.338
DM/DRP ratio, pre-drug baseline (DM oxidation; DM before candidate antioxidant, single subjects): 0.02 (2×) and 0.00 (3×) and 0.03 and 0.06 (2×)
DM/DR Ratio, no quinidine [1]: <0.0002 and 0.054 and 0.0048 and 0.0220 and 0.0002 and 0.0003
DEXTROMETHORPHAN PLASMA LEVEL [2]: 9.3 NG/ML and NOT DETECTABLE (2×) and 16.5 NG/ML and 6.05 NG/ML
effect on symptoms of emotional lability [3]: not observed in any patients who received DM alone

CC(CCc1ccccc1)NCC(O)c1ccc(O)c(C(N)=O)c1 (stereo not shown) [labetalol]
Ki (debrisoquin hydroxylase): ≤ 50 µM

Cc1cccc(C)c1OCC(C)N (stereo not shown) [mexiletine]
Ki (debrisoquin hydroxylase): ≤ 50 µM

CNCCC=C1c2ccccc2CCc2ccccc21 [nortriptyline]
Ki (debrisoquin hydroxylase): ≤ 50 µM

C=CCOc1ccccc1OCC(O)CNC(C)C (stereo not shown) [oxprenolol]
Ki (debrisoquin hydroxylase): ≤ 50 µM
